This note sets out measurements from patent US8263606B2 (Xenon Pharmaceuticals Inc., priority 2008, dated 2012).

One series deals with sodium channel. Briefly: Guanidine influx assay (14C-guanidine radiotracer flux, in vitro). The following applies: guanidine influx assay using a known cell line that expresses a sodium channel. It is filed as cell-based, human or rat. The gist of the method:
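Radiotracer read-out: intracellular 14C-guanidine counted after washing with guanidine-supplemented low-sodium buffer. Cells expressing human or rat channels get test agent plus aconitine activator and tracer, incubated at ambient temperature. Dilution series centred on 1 μM; IC50 by sigmoidal dose-response fit.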

Series [1] concerns inactivated state of the channel of interest (sodium channel). Put plainly: Electrophysiological assay (whole cell voltage clamp, in vitro). In kind it is cell-based. The following applies: affinity for the inactivated state of the channel of interest. How it is done:
Cells expressing the channel of interest are cultured in DMEM growth media (Gibco) with 0.5 mg/mL G418, +/−1% PSG, and 10% heat-inactivated fetal bovine serum at 37° C. and 5% CO2. For electrophysiological recordings, cells are plated on 10 mm dishes.
Whole cell recordings are examined by established methods of whole cell voltage clamp (Bean et al., op. cit.) using an Axopatch 200B amplifier and Clampex software (Axon Instruments, Union City, Calif.). All experiments are performed at ambient temperature. Electrodes are fire-polished to resistances of 2-4 Mohms Voltage errors and capacitance artifacts are minimized by series resistance compensation and capacitance compensation, respectively. Data are acquired at 40 kHz and filtered at 5 kHz. The external (bath) solution consists of: NaCl (140 mM), KCl (5 mM), CaCl2 (2 mM), MgCl2 (1 mM), HEPES (10 mM) at pH 7.4. The internal (pipette) solution consists of (in mM): NaCl (5), CaCl2 (0.1), MgCl2 (2), CsCl (10), CsF (120), HEPES (10), EGTA (10), at pH 7.2.
To estimate the steady-state affinity of compounds for the resting and inactivated state of the channel (Kr and Ki, respectively), 12.5 ms test pulses to depolarizing voltages from −60 to +90 mV from a holding potential of −120 m V is used to construct current-voltage relationships (I-V curves). A voltage near the peak of the IV-curve (−30 to 0 m V) is used as the test pulse throughout the remainder of the experiment. Steady-state inactivation (availability) curves are then constructed by measuring the current activated during a 8.75 ms test pulse following 1 second conditioning pulses to potentials ranging from −120 to −10 m V.
The steady-state voltage-dependence of binding of a compound to a sodium channel is determined by measuring the blockage of the ionic current at two holding potentials. Binding to rested-state channels is determined by using a holding potential of −120 mV, so that maximal availability is achieved. Binding to inactivated-state channels is evaluated at a holding potential such that only 10% of the channels are available to open. The membrane potential is held at this voltage for at least 10 seconds so that drug binding can equilibrate.
The apparent dissociation constant at each voltage is calculated with the equation:
[formula] where Kd is the dissociation constant (either Kr or Ki), and [Drug] is the concentration of the test compound.
The Example numbers provided in Table 3 correspond to the Examples herein: […]

Another series addresses CYP3A4 (Homo sapiens, UniProt P08684). Put plainly: Cytochrome P450 (CYP450) Inhibition Assay, CYP3A4 (Vivid fluorescence, BOMCC substrate). As to conditions: human, P450 Baculosomes (recombinant CYP3A4), probe BOMCC (Vivid substrate).

Chain of CYP3A4 (P08684 whole entry): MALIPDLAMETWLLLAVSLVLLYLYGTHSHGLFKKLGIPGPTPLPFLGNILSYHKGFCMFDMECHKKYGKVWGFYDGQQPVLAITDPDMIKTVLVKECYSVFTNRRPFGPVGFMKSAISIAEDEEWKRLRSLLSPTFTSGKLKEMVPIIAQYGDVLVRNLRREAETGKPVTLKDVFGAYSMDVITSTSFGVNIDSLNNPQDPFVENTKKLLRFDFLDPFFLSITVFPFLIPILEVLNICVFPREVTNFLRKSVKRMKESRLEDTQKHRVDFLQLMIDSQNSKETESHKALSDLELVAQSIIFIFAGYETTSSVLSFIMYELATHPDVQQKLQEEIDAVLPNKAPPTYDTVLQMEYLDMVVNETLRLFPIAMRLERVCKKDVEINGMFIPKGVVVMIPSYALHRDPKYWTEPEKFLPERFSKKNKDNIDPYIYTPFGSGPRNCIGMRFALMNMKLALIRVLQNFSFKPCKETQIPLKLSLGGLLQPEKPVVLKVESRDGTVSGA

As to `O=C1N(Cc2ncccc2C(F)(F)F)c2ccccc2[C@]12COc1cc3c(cc12)OCCO3` [Example 1.12, (8S)-1′-{[3-(trifluoromethyl)pyridin-2-yl]methyl}-2,3-dihydrospiro[furo[2,3-g][1,4]benzodioxine-8,3′-indol]-2′(1′H)-one], the IC50 in the series with sodium channel (activity level class) is 1 to 100 nM. Moreover, the Ki in series [1] is < 300 nM. Also, the inhibition at 10 µM on CYP3A4 was < 50%.
`CN1C(=O)C2(COc3cc4c(cc32)OC(F)(F)O4)c2ccccc21` (centres unmarked) [Example 2.35]: in the series on sodium channel (activity level class), the IC50 is 1000 to 10000 nM. In addition, the Ki in series [1] was > 300 nM. Also, the inhibition at 10 µM at CYP3A4 is > 50%.
`O=C1N(Cc2ncccc2C(F)(F)F)c2ccccc2C12OCOc1cc3c(cc12)OCCO3` (centres unmarked) [Example 2.54, 1′-{[3-(trifluoromethyl)pyridin-2-yl]methyl}-7,8-dihyrdospiro[1,4-dioxino[2,3-g][1,3]benzodioxine-4,3′-indol]-2′(1′H)-one]: the Ki in series [1] was > 300 nM. Besides, the inhibition at 10 µM on CYP3A4 was < 50%.
Take `O=C1N(CC2CCCCO2)c2ccccc2C12COc1cc3c(cc12)CCO3` (centres unmarked) [Example 4, 1′-(tetrahydro-2H-pyran-2-ylmethyl)-5,6-dihydrospiro[benzo[1,2-b:5,4-b′]difuran-3,3′-indol]-2′(1′H)-one]: in the series on sodium channel (activity level class), the IC50 is 1 to 100 nM. Besides, in series [1], the Ki is > 300 nM. Further, the inhibition at 10 µM at CYP3A4 was < 50%.
In the same order, the values of `O=C1N(C[C@H]2CCCO2)c2ccccc2C12COc1cc3c(cc12)CCO3` (stereo partly drawn) [Example 4.3, 1′-[(2R)-tetrahydrofuran-2-ylmethyl]-5,6-dihydrospiro[benzo[1,2-b:5,4-b′]difuran-3,3′-indol]-2′(1′H)-one] are 1 to 100 nM, > 300 nM and < 50%.
For `O=C1N(CC2CCOCC2)c2ccccc2C12COc1cc3c(cc12)CCO3` (centres unmarked) [Example 4.6, 1′-(tetrahydro-2H-pyran-4-ylmethyl)-5,6-dihydrospiro[benzo[1,2-b:5,4-b′]difuran-3,3′-indol]-2′(1′H)-one] the same measures were 100 to 1000 nM, > 300 nM and < 50%.
For `O=C1N(CC2COCCO2)c2ccccc2C12COc1cc3c(cc12)CCO3` (centres unmarked) [Example 4.8, 1′-(1,4-dioxan-2-ylmethyl)-5,6-dihydrospiro[benzo[1,2-b:5,4-b′]difuran-3,3′-indol]-2′(1′H)-one] the same measures were 1 to 100 nM, > 300 nM and < 50%.
Consider `O=C1N(CC2CCCOC2)c2ccccc2C12COc1cc3c(cc12)CCO3` (centres unmarked) [Example 4.10, 1′-(tetrahydro-2H-pyran-3-ylmethyl)-5,6-dihydrospiro[benzo[1,2-b:5,4-b′]difuran-3,3′-indol]-2′(1′H)-one], for which, in the series on sodium channel (activity level class), the IC50 is 1 to 100 nM. Moreover, in series [1], the Ki is > 300 nM. For the same molecule, the inhibition at 10 µM at CYP3A4 was < 50%.
For `O=C1N(CC2CCOC2)c2ccccc2C12COc1cc3c(cc12)CCO3` (centres unmarked) [Example 4.16, 1′-(tetrahydrofuran-3-ylmethyl)-5,6-dihydrospiro[benzo[1,2-b:5,4-b′]difuran-3,3′-indol]-2′(1′H)-one] the same measures were 100 to 1000 nM, > 300 nM and < 50%.
For `O=C1N(CC2CCO2)c2ccccc2C12COc1cc3c(cc12)CCO3` (centres unmarked) [Example 4.20, 1′-(oxetan-2-ylmethyl)-5,6-dihydrospiro[benzo[1,2-b:5,4-b′]difuran-3,3′-indol]-2′(1′H)-one], in the series with sodium channel (activity level class), the IC50 was 100 to 1000 nM. Besides, the Ki in series [1] is > 300 nM. In addition, the inhibition at 10 µM at CYP3A4 is < 50%.
In the same order, the values of `COc1ccc2c(c1)OCC21C(=O)N(C[C@H]2CCCO2)c2ccccc21` (stereo partly drawn) [Example 4.68, 6-methoxy-1′-[(2R)-tetrahydrofuran-2-ylmethyl]spiro[1-benzofuran-3,3′-indol]-2′(1′H)-one] are 100 to 1000 nM, > 300 nM and < 50%.
In the same order, the values of `O=C1N(Cc2ccc(C(F)(F)F)o2)c2c(Cl)cccc2C12COc1cc3c(cc12)CCO3` (centres unmarked) [Example 5.1, 7′-chloro-1′-((5-(trifluoromethyl)furan-2-yl)methyl)-5,6-dihydro-2H-spiro[benzofuro[6,5-b]furan-3,3′-indolin]-2′-one] are 100 to 1000 nM, < 300 nM and > 50%.
For the molecule `CCCCCN1C(=O)[C@]2(COc3cc4c(cc32)OCCO4)c2ccccc21` [Example 7.4, (R)-1′-pentyl-2,3-dihydrospiro[furo[2,3-g][1,4]benzodioxine-8,3′-indol]-2′(1′H)-one], in series [1], the Ki is > 300 nM. Also, the inhibition at 10 µM at CYP3A4 is > 50%.
For `COCCCCN1C(=O)C2(COc3cc4c(cc32)OCCO4)c2ccccc21` (centres unmarked) [Example 7.8] the same measures were < 300 nM and < 50%.
In the case of `O=C1N(Cc2ncccc2C(F)(F)F)c2ccccc2[C@@]12COc1cc3c(cc12)OCCO3` [Example 7.15], the IC50 in the series on sodium channel (activity level class) lay in the range of 100 to 1000 nM. For the same molecule, in series [1], the Ki was > 300 nM. Also, the inhibition at 10 µM on CYP3A4 is < 50%.
For `CN1C(=O)COc2cc3c(cc21)OCC31C(=O)N(C[C@H]2CCCO2)c2ccccc21` (stereo partly drawn) [Example 9.23, 4-methyl-1′-(((R)-tetrahydrofuran-2-yl)methyl)-4,7-dihydrospiro[benzofuro[5,6-b][1,4]oxazine-8,3′-indoline]-2′,3(2H)-dione] the same measures were 1 to 100 nM, > 300 nM and < 50%.
For the molecule `O=C1N(Cc2cccnc2)c2ccccc2C12COc1cc3c(cc12)OCCO3` (centres unmarked) [Example 10.1, 1′-(pyridin-3-ylmethyl)-2,3-dihydrospiro[furo[2,3-g][1,4]benzodioxine-8,3′-indol]-2′(1′H)-one], the Ki in series [1] was > 300 nM.
In the case of `COc1cc2c(cc1C)[C@@]1(CO2)C(=O)N(CN2CCN(C)CC2)c2ccccc21` [Example 11.64, (3S)-6-methoxy-5-methyl-1′-[(4-methylpiperazin-1-yl)methyl]spiro[1-benzofuran-3,3′-indol]-2′(1′H)-one hydrogen chloride], the half-maximal inhibitory concentration (IC50) in the series on sodium channel is 1 to 100 nM. Also, the Ki in series [1] was > 300 nM. Besides, the inhibition at 10 µM on CYP3A4 was < 50%.
On to `O=C1N(C[C@H]2CCCO2)c2ccccc2[C@]12COc1cc3c(cc12)CCO3` [Example 11.66, (3S)-1′-[(2R)-tetrahydrofuran-2-ylmethyl]-5,6-dihydrospiro[benzo[1,2-b:5,4-b′]difuran-3,3′-indol]-2′(1′H)-one], for which the IC50 in the series on sodium channel lay within 1 to 100 nM. Also, the Ki in series [1] was > 300 nM.
On to `CN1C(=O)C2(COc3cc4c(cc32)OCCO4)c2c(Oc3ccccc3)cccc21` (centres unmarked) [Example 16.80, 1′-methyl-4-phenoxy-2,3-dihydrospiro[furo[2,3-g][1,4]benzodioxine-8,3′-indol]-2′(1′H)-one], for which the Ki in series [1] is < 300 nM. Also, the inhibition at 10 µM on CYP3A4 is > 50%.
Molecule `O=C1N(Cc2ncccc2C(F)(F)F)c2ccccc2C12COc1cc3[nH]ncc3cc12` (centres unmarked) [Example 46.2, 1′-((3-(trifluoromethyl)pyridin-2-yl)methyl)-1,6-dihydrospiro[furo[3,2-f]indazole-5,3′-indolin]-2′-one] came in with a melting point of 152 to 154 °C. The IC50 in the series on sodium channel lay within 100 to 1000 nM. The inhibition at 10 µM on CYP3A4 was > 50%.
